Entries after “also recorded” stand apart in the source; their conditions may differ. Read-outs that look alike come from different tables or passages of the source.
Legend:
[1] = target: T1, MMP13 (Homo sapiens (Human), UniProt P45452); assay: MMP activity assay (fluorogenic substrate), MMP13 catalytic domain; format: biochemical; settings: Table 2; read-out: MMP13 IC50
[2] = tested on: isolated rat hearts; assay: Myocardial ischemia/reperfusion injury in isolated rat hearts (Langendorff), infarct size; format: ex vivo
Procedure: Male Wistar rats were anesthetized with diethyl ether, heparin (500 U/kg i.v.) was administered and hearts were isolated. The hearts were assigned to three groups: (i) DMSO control and (ii) Compound 1 (1 μM) and (iii) Compound 1 (10 μM) treated. Stock solution of inhibitors was prepared in DMSO. The final DMSO concentration in all assays was 0.1%. Hearts were perfused in Langendorff mode with constant pressure (100 H2O cm) for 20 min at 37° C. then exposed to global ischemia for 30 min followed by 120 min of reperfusion. The DMSO and inhibitors were dissolved in Krebs-Henseleit buffer and administered only before onset of ischemia for 20 min (pretreatment) and during the first 30 min of reperfusion (FIG. 6). At the end of reperfusion, infarct size (IS) was defined by triphenyltetrazolium chloride staining (Csonka et al., 2010).
In separate experiments hearts were perfused to test cardioprotective effect of ALBH-know compound at 5 μM final concentration. The same protocol was used as mentioned above.

[3] = Cytotoxicity, alamarBlue viability, MRC-5; format: cell-based; settings: human, MRC-5 fibroblast cells, 48 hours incubation, read-out: MRC-5 LC50
Summary of the method: (§1)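 Cells exposed to compound dilutions for 48 hours, then alamarBlue added for 4 hours; fluorescence read at ex 540/em 590 nm. IC50 from six concentrations run in duplicate.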

[4] = target: MMP-9 (Rattus norvegicus (Rat), UniProt P50282); assay: In vitro zymography assay (gelatin), MMP-9; format: biochemical; settings: % ± SD
Chain of MMP-9 (P50282 108-708): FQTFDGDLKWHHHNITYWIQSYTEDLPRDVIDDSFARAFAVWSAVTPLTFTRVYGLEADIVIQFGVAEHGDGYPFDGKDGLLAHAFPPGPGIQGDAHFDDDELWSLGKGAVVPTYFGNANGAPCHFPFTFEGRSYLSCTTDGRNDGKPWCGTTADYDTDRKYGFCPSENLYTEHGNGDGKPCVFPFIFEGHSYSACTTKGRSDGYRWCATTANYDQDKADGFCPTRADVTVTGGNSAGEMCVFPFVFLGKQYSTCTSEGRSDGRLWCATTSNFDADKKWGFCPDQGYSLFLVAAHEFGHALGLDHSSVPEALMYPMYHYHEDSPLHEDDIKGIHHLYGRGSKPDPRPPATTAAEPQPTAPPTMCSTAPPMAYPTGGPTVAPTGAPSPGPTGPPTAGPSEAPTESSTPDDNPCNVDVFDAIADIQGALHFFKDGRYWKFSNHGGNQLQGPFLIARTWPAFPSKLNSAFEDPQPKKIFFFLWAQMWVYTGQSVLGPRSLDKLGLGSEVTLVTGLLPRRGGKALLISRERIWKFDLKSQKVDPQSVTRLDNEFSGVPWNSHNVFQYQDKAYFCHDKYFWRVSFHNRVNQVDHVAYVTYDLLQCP
Procedure: (§2) MMP-2 and MMP-9 enzymes were isolated from rat hearts and from rat spleen while human, recombinant MMP-1 and MMP-13 enzymes used were commercial. MMP-2, -9, -13 enzymes were separated by electrophoresis during non-reducing conditions on 8% SDS-polyacrylamide gels copolymerized with 2 mg/ml gelatin from porcine skin (Sigma Aldrich) while MMP-1 was separated under the same conditions on 8% SDS-polyacrylamide gels copolymerized with 2 mg/ml casein (Sigma Aldrich). […] In case of MMP-13 p-aminophenylmercuric acetate (APMA) was used for enzyme activation at 37° C. for 30 min. After electrophoresis, gels were washed in 2.5% Triton-X 100 with agitation and then incubated for 20 hrs at 37° C. in enzyme incubation buffer (50 mM Tris-HCl, pH 7.5, containing 5 mM CaCl2, 200 mM NaCl) with or without MMP inhibitor. Zymographic gels were stained in Coomassie Brilliant Blue R-250 and de-stained. Gelatin and casein zymograms were scanned. MMP activity is detected as a white zone on a blue background and the clear bands in the gel can be quantified by densitometry. The obtained density values were measured and % inhibition values calculated (Kupai et al., 2010). The table below summarizes the prescreen inhibition values determined for different MMP inhibitors on MMP1, -2, -9, -13.

[5] = target: T2, MMP1 (Homo sapiens (Human), UniProt P03956); assay: MMP activity assay (fluorogenic substrate), MMP1; format: biochemical
Target sequence in this assay (P03956 100-469, species assumed): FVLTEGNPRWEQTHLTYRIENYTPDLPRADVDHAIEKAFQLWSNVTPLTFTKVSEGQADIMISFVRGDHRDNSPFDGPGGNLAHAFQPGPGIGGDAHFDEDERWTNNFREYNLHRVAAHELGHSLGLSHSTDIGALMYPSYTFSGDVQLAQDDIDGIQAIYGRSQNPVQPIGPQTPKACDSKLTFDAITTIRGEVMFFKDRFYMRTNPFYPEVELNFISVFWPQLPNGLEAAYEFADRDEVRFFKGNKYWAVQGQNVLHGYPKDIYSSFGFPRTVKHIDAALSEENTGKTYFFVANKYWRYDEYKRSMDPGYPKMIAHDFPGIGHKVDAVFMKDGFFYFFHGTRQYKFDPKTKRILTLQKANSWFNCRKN

[6] = target: MMP2 (Homo sapiens, UniProt P08253); assay: MMP activity assay (fluorogenic substrate), MMP2 catalytic domain; format: biochemical
[7] = target: T2, MMP1; assay: In vitro zymography assay (casein), MMP-1; format: biochemical; settings: % ± SD
Procedure: as §2
Target sequence in this assay (P03956 100-469): as the sequence (P03956 100-469, species assumed) above

[8] = target: T1, MMP13; assay: In vitro zymography assay (gelatin), MMP-13; format: biochemical; settings: % ± SD
Procedure: as §2

[9] = Cytotoxicity, alamarBlue viability, HCT116; format: cell-based; settings: human, HCT116 colon tumor cells, 48 hours incubation, read-out: HCT116 LC50
Summary of the method: as §1

[10] = read-out: % inhibition MMP-1 (52 kDa)
[11] = read-out: % inhibition MMP-1 (55 kDa)

O=C(O)c1csc(CN(Cc2ccc(F)cc2)Cc2ccc(OCc3cccnc3)cc2)n1 [Compound 1, 2-({[(4-Fluorophenyl)methyl]({[4-(pyridin-3-ylmethoxy)phenyl]methyl})amino}methyl)-1,3-thiazole-4-carboxylic acid]
IC50 [1]: 2.5 µM | myocardial IS (infarct size) ([2]; 1 μM and 10 μM, administered before ischemia and during reperfusion, result in words): reduced myocardial IS; also recorded: decreased infarct size significantly | Infarct size as compared with DMSO control ([2]; 10 μM, isolated rat hearts, 30 min global ischemia, 120 min reperfusion, p<0.05): significantly decreased infarct size | CC50 at 48 h [3]: 25 µM | % inhibition MMP-9 (92 kDa) ([4]; 1 μM): No inhibition | % inhibition MMP-9 (92 kDa) ([4]; 100 μM): No inhibition | IC50 ([5]; Table 2, read-out: MM1 IC50): 51 µM | IC50 ([5]; read-out: IC50 on MMP1): 46 µM | IC50 ([6]; Table 2, read-out: MMP2 IC50): 5.7 µM | IC50 ([6]; read-out: IC50 on MMP2): 5.7 µM | inhibition at 1 µM [7, 10]: 25.9 ± 9.51% | inhibition at 1 µM [7, 11]: 29.2 ± 38.7% | inhibition at 100 µM [7, 10]: 58 ± 12.6% | inhibition at 100 µM [7, 11]: 95.3 ± 8.17% | inhibition at 1 µM ([8]; 1 μM, read-out: % inhibition MMP-13 (50 kDa)): 54.4 ± 2.33% | % inhibition MMP-13 (50 kDa) ([8]; 100 μM): No inhibition | CC50 at 48 h [9]: 11 µM

Source: patent publication US9487462B2, “Inhibitors of matrix metalloproteinases” (PharmaHungary 2000 Kft., priority 2010, dated 2016)
